{"source": "PubChem BioAssay (NCI)", "experiment_in_all_cases": "DTP human tumour cell line panel, 48 h", "key": {"HS 578T breast": {"tested_on": "HS 578T breast"}, "SF-539 CNS": {"tested_on": "SF-539 CNS"}, "PC-3 prostate": {"tested_on": "PC-3 prostate"}, "LOX IMVI melanoma": {"tested_on": "LOX IMVI melanoma"}, "SF-268 CNS": {"tested_on": "SF-268 CNS"}, "SK-MEL-2 melanoma": {"tested_on": "SK-MEL-2 melanoma"}, "786-0 renal": {"tested_on": "786-0 renal"}, "UACC-62 melanoma": {"tested_on": "UACC-62 melanoma"}, "HL-60(TB) leukemia": {"tested_on": "HL-60(TB) leukemia"}, "SF-295 CNS": {"tested_on": "SF-295 CNS"}, "HCC-2998 colon": {"tested_on": "HCC-2998 colon"}, "BT-549 breast": {"tested_on": "BT-549 breast"}, "U251 CNS": {"tested_on": "U251 CNS"}, "RXF 393 renal": {"tested_on": "RXF 393 renal"}, "K-562 leukemia": {"tested_on": "K-562 leukemia"}, "SW-620 colon": {"tested_on": "SW-620 colon"}, "MCF7 breast": {"tested_on": "MCF7 breast"}, "UO-31 renal": {"tested_on": "UO-31 renal"}, "OVCAR-8 ovarian": {"tested_on": "OVCAR-8 ovarian"}, "IGROV1 ovarian": {"tested_on": "IGROV1 ovarian"}, "COLO 205 colon": {"tested_on": "COLO 205 colon"}, "RPMI-8226 leukemia": {"tested_on": "RPMI-8226 leukemia"}, "HCT-116 colon": {"tested_on": "HCT-116 colon"}, "MALME-3M melanoma": {"tested_on": "MALME-3M melanoma"}, "SNB-19 CNS": {"tested_on": "SNB-19 CNS"}, "SK-MEL-28 melanoma": {"tested_on": "SK-MEL-28 melanoma"}, "OVCAR-3 ovarian": {"tested_on": "OVCAR-3 ovarian"}, "MOLT-4 leukemia": {"tested_on": "MOLT-4 leukemia"}, "A498 renal": {"tested_on": "A498 renal"}}, "note": "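Five concentrations, 48 hours, 96-well plates. GI50 is the concentration that inhibits growth by half. TGI marks complete inhibition of growth.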"}
{"smiles": "CS(=O)(=O)c1nccc(-c2c(-c3ccc(F)c(OCCc4ccc(F)cc4)c3)nc3sccn23)n1", "values": [{"measurement": "TGI", "setting": "HS 578T breast", "value": 43.8, "unit": "µM"}, {"measurement": "GI50", "setting": "SF-539 CNS", "value": 15.5, "unit": "µM"}, {"measurement": "TGI", "setting": "SF-539 CNS", "value": 30, "unit": "µM"}, {"measurement": "GI50", "setting": "PC-3 prostate", "value": 10.9, "unit": "µM"}, {"measurement": "TGI", "setting": "PC-3 prostate", "value": 27.2, "unit": "µM"}, {"measurement": "GI50", "setting": "LOX IMVI melanoma", "value": 13, "unit": "µM"}, {"measurement": "TGI", "setting": "LOX IMVI melanoma", "value": 27.6, "unit": "µM"}, {"measurement": "GI50", "setting": "SF-268 CNS", "value": 16.4, "unit": "µM"}, {"measurement": "TGI", "setting": "SF-268 CNS", "value": 36.9, "unit": "µM"}, {"measurement": "GI50", "setting": "SK-MEL-2 melanoma", "value": 15.7, "unit": "µM"}, {"measurement": "TGI", "setting": "SK-MEL-2 melanoma", "value": 30.7, "unit": "µM"}, {"measurement": "GI50", "setting": "786-0 renal", "value": 14.9, "unit": "µM"}, {"measurement": "TGI", "setting": "786-0 renal", "value": 30, "unit": "µM"}, {"measurement": "GI50", "setting": "UACC-62 melanoma", "value": 15.4, "unit": "µM"}, {"measurement": "TGI", "setting": "UACC-62 melanoma", "value": 35.5, "unit": "µM"}, {"measurement": "GI50", "setting": "HL-60(TB) leukemia", "value": 3.23, "unit": "µM"}, {"measurement": "TGI", "setting": "HL-60(TB) leukemia", "value": 9.31, "unit": "µM"}, {"measurement": "GI50", "setting": "SF-295 CNS", "value": 17, "unit": "µM"}, {"measurement": "TGI", "setting": "SF-295 CNS", "value": 31.6, "unit": "µM"}, {"measurement": "GI50", "setting": "HCC-2998 colon", "value": 3.48, "unit": "µM"}, {"measurement": "TGI", "setting": "HCC-2998 colon", "value": 11.3, "unit": "µM"}, {"measurement": "GI50", "setting": "BT-549 breast", "value": 14, "unit": "µM"}, {"measurement": "TGI", "setting": "BT-549 breast", "value": 27.6, "unit": "µM"}, {"measurement": "GI50", "setting": "U251 CNS", "value": 15.9, "unit": "µM"}, {"measurement": "TGI", "setting": "U251 CNS", "value": 29.7, "unit": "µM"}, {"measurement": "GI50", "setting": "RXF 393 renal", "value": 15, "unit": "µM"}, {"measurement": "TGI", "setting": "RXF 393 renal", "value": 29.2, "unit": "µM"}, {"measurement": "GI50", "setting": "K-562 leukemia", "value": 15, "unit": "µM"}, {"measurement": "TGI", "setting": "K-562 leukemia", "value": 53.8, "unit": "µM"}, {"measurement": "GI50", "setting": "SW-620 colon", "value": 15.2, "unit": "µM"}, {"measurement": "TGI", "setting": "SW-620 colon", "value": 30.6, "unit": "µM"}, {"measurement": "GI50", "setting": "MCF7 breast", "value": 1.85, "unit": "µM"}, {"measurement": "TGI", "setting": "MCF7 breast", "value": 4.31, "unit": "µM"}, {"measurement": "GI50", "setting": "UO-31 renal", "value": 10.2, "unit": "µM"}, {"measurement": "TGI", "setting": "UO-31 renal", "value": 21.8, "unit": "µM"}, {"measurement": "GI50", "setting": "OVCAR-8 ovarian", "value": 15.5, "unit": "µM"}, {"measurement": "TGI", "setting": "OVCAR-8 ovarian", "value": 33.2, "unit": "µM"}, {"measurement": "GI50", "setting": "IGROV1 ovarian", "value": 5.9, "unit": "µM"}, {"measurement": "TGI", "setting": "IGROV1 ovarian", "value": 24.6, "unit": "µM"}, {"measurement": "GI50", "setting": "COLO 205 colon", "value": 17.1, "unit": "µM"}, {"measurement": "TGI", "setting": "COLO 205 colon", "value": 32.5, "unit": "µM"}, {"measurement": "GI50", "setting": "RPMI-8226 leukemia", "value": 4.34, "unit": "µM"}, {"measurement": "TGI", "setting": "RPMI-8226 leukemia", "value": 28.1, "unit": "µM"}, {"measurement": "GI50", "setting": "HCT-116 colon", "value": 12.9, "unit": "µM"}, {"measurement": "TGI", "setting": "HCT-116 colon", "value": 25.5, "unit": "µM"}, {"measurement": "GI50", "setting": "MALME-3M melanoma", "value": 17.2, "unit": "µM"}, {"measurement": "TGI", "setting": "MALME-3M melanoma", "value": 31.7, "unit": "µM"}, {"measurement": "GI50", "setting": "SNB-19 CNS", "value": 15.2, "unit": "µM"}, {"measurement": "TGI", "setting": "SNB-19 CNS", "value": 33.9, "unit": "µM"}, {"measurement": "GI50", "setting": "SK-MEL-28 melanoma", "value": 11.9, "unit": "µM"}, {"measurement": "TGI", "setting": "SK-MEL-28 melanoma", "value": 24.5, "unit": "µM"}, {"measurement": "GI50", "setting": "OVCAR-3 ovarian", "value": 7.11, "unit": "µM"}, {"measurement": "TGI", "setting": "OVCAR-3 ovarian", "value": 20.8, "unit": "µM"}, {"measurement": "GI50", "setting": "MOLT-4 leukemia", "value": 14.3, "unit": "µM"}, {"measurement": "TGI", "setting": "MOLT-4 leukemia", "value": 34.5, "unit": "µM"}, {"measurement": "GI50", "setting": "A498 renal", "value": 9.97, "unit": "µM"}, {"measurement": "TGI", "setting": "A498 renal", "value": 21.5, "unit": "µM"}]}
